Entries after “also recorded” stand apart in the source; their conditions may differ. Where a name gives a salt, the structure may show the parent alone.
Columns and labels:
MCF-7/HER2 cells = experiment: Proliferation of tamoxifen-resistant MCF-7/HER2 cells (cell counts); settings: 72 hours; for proliferation of MCF-7/HER2 cells: 0.1-50 micromolar, cell counts, P<0.001 vs controls
Procedure: Assays for Tumor Cell Proliferation. […] Cell counts and viability tests (Trypan blue) will be done every 24 hr for 2-33 days. After 48-72 hr, proliferation was assessed by cell counts.

[1] = tested on: A549, H23, H2122 and H1975 NSCLC cells; experiment: MTS cell viability/proliferation assay in NSCLC cell lines, 72 h; type: cell-based, human; settings: for growth inhibition at 10 μM / growth inhibition at 100 μM: A549, H23, H2122, H1975; for inhibitory activity relative to other analogues: FIG. 5, 0.1-100 μM
Procedure: FIG. 5. Parthenolide analogues JD201-JD210 suppress human lung tumor cell proliferation in vitro. A549, H23, H2122 and H1975 NSCLC cells were treated with increasing concentrations of drugs (0.1-100 μM). After 72 h cell viability was assessed by MTS assay. Viable cells are expressed as percentage of vehicle control. P<0.01 (**), versus control group, P<0.05 (*), versus control group. Natural occurring parthenolide (PTL), parthenolide analogues JD201 (DMAPT)-JD210. Parthenolide analogues inhibit female (H1975, H2122) and male (H23, A549) NSCLC cell proliferation.
To determine the effect of parthenolide analogues in lung cancer cell proliferation we tested two male (A549, H23) and two female (H2122, H1975) lung cancer cell lines with increasing concentrations of parthenolide analogues (0.1, 1, 10 and 100 μM) for 72 hours.

A549 NSCLC xenografts = A549 NSCLC xenografts in immunodeficient mice; type: in vivo
[2] = tested on: cancer stem cells (CSC) derived from NSCLC (H157); experiment: Annexin-V apoptosis assay in lung cancer stem cells; type: cell-based, human; settings: compared with bulk NSCLC cells, 3 independent experiments
Procedure: FIG. 3. […] A comparison is performed using bulk NSCLC cells. Results based on annexin-V assays in 3 independent experiments.
Analogues of parthenolide were prepared and purified (FIG. 8) and assessed for antitumor efficacy, to develop the best agents for clinical use. Responses of CSC-like subsets, bulk tumor cells and normal lung epithelial cells to parthenolide (PTL) analogues alone and with chemotherapy are ongoing, with assessments by TUNEL and Annexin-V assay for apoptosis (13) (FIG. 3) and cell proliferation (FIG. 4).

[3] = tested on: H157 NSCLC cells (bulk and CSC-subpopulations); experiment: Proliferation of NSCLC bulk cells and CSC subpopulations; type: cell-based, human; settings: bulk cell preparations and CSC-subpopulations; drug dose 20 micromolar; P<0.05 vs control
From the text: FIG. 4. […] JD201 drug dose=20 micromolar.
Lung cancer is the leading cause of cancer death in men and women worldwide. The poor prognosis of advanced non-small cell lung cancer (NSCLC) is due, in part, to emergence of tumor resistance to chemotherapy. […] If such minute subsets of CSC drive tumor formation and drug resistance, therapies targeting the bulk tumor mass but not CSC will fail. […] We identified CD133+/ALDH+ tumor stem/progenitor cells from human lung cancer cells in vitro using established Aldefluor assays in combination with labeled anti-CD133 antibodies. […] The antitumor effect of PTL may be due to its action as a potent inhibitor of nuclear factor-KB (NF-κB), which is markedly activated by chemotherapy. To target CSC and suppress tumor progression, we synthesized and tested novel analogs of PTL with improved antitumor properties and aqueous solubility. […] Dose-dependent increments of PTL analogs increase apoptosis of CSC when compared with bulk cells. […] Using Western blots, we find that PTL congeners inhibit phosphorylation of the p65 subunit of phospho-NF-κB and activation of IKKα/β. […]
Analogues of parthenolide were prepared and purified (FIG. 8) and assessed for antitumor efficacy, to develop the best agents for clinical use. […]

[4] = tested on: NF-κB/p65 phosphorylation; experiment: Western blot of phospho-NF-κB/p65 in H23 cells; type: cell-based, human; settings: for phosphorylation of the p65 subunit of NF-κB: 10 μM, 60 min (FIG. 7); for phosphorylation of NF-κB/p65: 10 µM, 60 min (FIG. 13)
Procedure: FIG. 7. […] After 60 min Western blot were performed using anti-phospho-NF-κB/p65 antibody (Cell Signaling Technology #3031). Membranes were stripped and re-probed with antibody against total NF-κB/p65 (CST #3037).
After 60 min, Western blots were done using anti-phospho-NFκB/p65 antibody (Cell Signaling).
Upon confirming that parthenolide analogues can inhibit NSCLC cell proliferation, induce cell death and enhance the cytotoxicity of chemotherapy, we began to investigate potential cellular mechanisms that may underlie this process. For example, we used Western Blot methods to determine phosphorylation of the p65 subunit of NF-κB. H23 cells were incubated in the presence of vehicle control or 10 μM concentration of the parthenolide derivatives (JD 201, 202, 203, 204) for 60 min. After treatment, cells were collected and homogenized in lysis buffer. Extracts were electrophoresed on 4-20% gradient SDS-PAGE gels and transferred to nitrocellulose membranes. Blots were probed with anti-phospho-NF-κB/p65 and NF-κB/p65 for a loading control.

Aqueous solubility = type: physicochemical
[5] = tested on: angiomyolipoma (AML) cells; experiment: Proliferation of angiomyolipoma (AML) cells; type: cell-based; settings: 72 hours, IIA medium with 1% FBS, cell counts
Procedure: (§1) FIG. 19. […] Cells were counted and plated and then treated with parthenolide analogue JD203 or control for 72 hours using IIA medium with 1% FBS. At the end of the experiments, cell proliferation was quantitated based on cell counts. Experimental results (n=3) shown as % control (mean±SE).
(§2) We have tested inhibitory activity of parthenolide analogues using cell models for TSC-related proliferative disease. The ELT3 cells are a TSC2-null smooth muscle-derived cell line from a rat uterine leiomyoma and often used as a model for lymphangioleiomyomatosis (LAM) and other TSC-related proliferative diseases (75,76). Angiomyolipoma cells (AML) that have inactivating mutations in both alleles of the TSC2 gene were also used as an alternate cell model (77,78). Cells were routinely cultured in IIA complete medium (50% DMEM, 50% F-12, […] NaHCO3, […] FeSO4, 50 nM sodium selenite, […] insulin, 200 nM hydrocortisone, […] transferrin, 1 nM triiodothyronine, 10 mU/ml vasopressin, 10 nM cholesterol, 10 ng/ml epidermal growth factor) containing 15% FBS. For study of proliferation, cells were incubated for 3 days in IIA medium containing 1% FBS. Results of these experiments indicate that parthenolides may also have utility in the treatment of TSC-related proliferative diseases that are not classified as malignancies.

ELT3 cells = experiment: Proliferation of ELT3 cells (TSC-related disease model); type: cell-based, rat; settings: 72 hours, IIA medium with 1% FBS, cell counts
Procedure: as §1, §2

[6] = tested on: MCF-7/TAMR breast cancer cells; experiment: Proliferation of tamoxifen-resistant MCF-7/TMR (TAM-R) cells; type: cell-based, human; settings: analogue at varying doses plus tamoxifen 1×10^-7 M, 48 hours; P<0.01
Procedure: MCF-7/CON cells are tamoxifen-sensitive, while MCF-7/HER2 and MCF-7/TMR cells are known to be tamoxifen-resistant (28,61,66,67). Except for TMR (64,68), cells were routinely cultured in RPMI 1640 media with 10% heat-inactivated FBS (28,64,66). For E2-free conditions, media were changed 48 h before studies to phenol-red free RPMI 1640 with 1% dextran-coated, charcoal-treated (DCC) FBS. TMR cells were derived by long-term continuous exposure of cells to 10^−7 M 4-hydroxy-tamoxifen by established methods (64,68) and were maintained with 10^−7 M 4-hydroxytamoxifen in medium. Levels of ERα and HER2 expression in these several cell lines were determined by use of Western blot methods.
Assays for Tumor Cell Proliferation. Breast tumor cells were be grown in RPMI 1640 media with 10% heat-inactivated FBS (except for TMR and TZR cells as noted above). For estrogen-free conditions, medium were changed 48 h before studies to phenol-red free RPMI 1640 with 1% dextran-coated, charcoal-treated (DCC) FBS, then treated with selected reagents. Cell counts and viability tests (Trypan blue) will be done every 24 hr for […]. After 48-72 hr, proliferation was assessed by cell counts.

SKBR3/TZR cells = experiment: Proliferation of trastuzumab-resistant SKBR3/TZR cells; type: cell-based, human; design: dose or concentration left out as unconfirmed; settings: 0.1 to 50 micromolar alone or with trastuzumab, 72 hours
Procedure: Assays for Tumor Cell Proliferation. […] Cell counts and viability tests (Trypan blue) will be done every 24 hr for […]. After 48-72 hr, proliferation was assessed by cell counts.
The human breast cancer cell line SKBR3 (ATCC) was obtained from the American Type Culture Collection (ATCC). Unless otherwise stated, monolayer cultures of SKBR3 were maintained in Dulbeccos' Modified Eagle's Media (DMEM):F12 medium with 10% FBS.

[7] = tested on: NF-κB/p65 phosphorylation; experiment: Western blot of cisplatin-mediated phospho-NF-κB/p65 in A549 cells; type: cell-based, human; settings: 5 μM cisplatin and/or 20 μM analog, time course
Procedure: FIG. 9. […] Western blots were then performed using anti-phospho-NF-κB/p65 antibody (Cell Signaling Technology #3036) and anti-phospho-IκBα antibody (CST #2859). Membranes were then stripped and reprobed with antibody against total NF-κB/p65 (CST #3987) and antibody against total IκBα (CST #4814).

cancer cells = experiment: Structure-activity study of antitumor activity; settings: compared to other known parthenolide derivatives such as DMAPT
From the text: We have developed a set of novel analogues of parthenolide which have both improved aqueous solubility and antitumor properties. An extensive structure-activity study was done to investigate parthenolide and its analogues. […] These water-soluble compounds, for example analog JD206, may be conjugated to sugars or peptides that may be selectively targeted to cancer cells, particularly cancer stem cells.

Compound | proliferation of MCF-7/HER2 cells (MCF-7/HER2 cells) | growth inhibition at 10 μM [1] | growth inhibition at 100 μM [1] | inhibitory activity relative to other analogues [1] | tumor progression (A549 NSCLC xenografts; oral gavage 100 mg/kg/day for 21 days vs vehicle control) | tumor volumes (A549 NSCLC xenografts; oral gavage 100 mg/kg/day for 21 days, vehicle controls 252±31 mm^3) [mm^3] | apoptosis of cancer stem cells (annexin-V) [2] | proliferation of NSCLC cells [3] | phosphorylation of the p65 subunit of NF-κB ([4]; listed as 201) | phosphorylation of the p65 subunit of NF-κB ([4]; listed as JD 201) | phosphorylation of NF-κB/p65 [4] | water solubility compared to DMAPT (JD201) (Aqueous solubility) | proliferation of MCF-7/HER2 cells, combination with tamoxifen (MCF-7/HER2 cells; analogue 0.1 to 50 micromolar with tamoxifen 1×10^-7 M, P<0.01) | proliferation of angiomyolipoma (AML) cells [5] | proliferation of ELT3 cells (ELT3 cells) | proliferation of MCF-7/TAMR cells, combination with tamoxifen [6] | proliferation of SKBR3/TZR cells (SKBR3/TZR cells) | phosphorylation of the p65 subunit of NF-κB [4] | cisplatin-mediated phosphorylation of NF-κB/p65 [7] | anticancer activity compared to DMAPT (JD201) (cancer cells)
C/C1=C\CC[C@@]2(C)O[C@H]2[C@H]2OC(=O)[C@@H](CN(C)C)[C@@H]2CC1 [JD201, (1aR,7aS,8R,10aS,Z)-8-((Dimethylamino)methyl)-1a,5-dimethyl-2,3,6,7,7a,8,10a,10b-octa-hydrooxireno[2′,3′:9,10]cyclodeca[1,2-b]furan-9(1aH)-one, fumaric acid salt, reference compound] | dose-dependent (0.1-50 micromolar) reduction in proliferation | Significant growth inhibition | Significant growth inhibition | greater inhibitory activity than compounds 205 and 207 | reduction in tumor progression | 55±5 | dose-dependent increments in apoptosis | inhibits proliferation | inhibit phosphory-lation of NF-κB/p65 | reduced phosphorylation of the p65 subunit of NF-κB | inhibit phosphorylation of NF-κB/p65 | – | – | – | – | – | – | – | – | –
C/C1=C/CC[C@@]2(C)OC2[C@H]2OC(=O)[C@@H](CN(CCO)CCO)[C@@H]2CC1.O=C(O)/C=C/C(=O)O (stereo partly drawn) [JD203, (1aR,7aS,8R,10aS,Z)-8-((Bis(2-hydroxyethyl)amino)methyl)-1a,5-dimethyl-2,3,6,7,7a,8,10a, 10b-octahydrooxireno[2′,3′:9,10]cyclodeca[1,2-b]furan-9(1aH)-one, fumaric acid salt] | dose-dependent (0.1-50 micromolar) reduction in proliferation | Significant growth inhibition | Significant growth inhibition | greater inhibitory activity than compounds 205 and 207 | – | – | – | – | – | – | inhibit phosphorylation of NF-κB/p65 | improved water solubility | greater reduction in cell proliferation than treatment with the analogue alone | inhibits proliferation | inhibits proliferation | enhanced blockade of tumor cell proliferation; also recorded: promotes antitumor effects of tamoxifen | reduces proliferation of SKBRS/TZR cells alone and in combination with trastuzumab | reduced phosphorylation of the p65 subunit of NF-κB; also recorded: inhibit phosphory-lation of NF-κB/p65 | inhibit cisplatin-mediated phosphorylation of NF-κB/p65 | strong anticancer activity

Reference: patent US9512138B2, “Compositions and methods for treating cancer” (The Regents of the University of California, priority 2012, dated 2016)
